Experimental data: ChEMBL document CHEMBL1201862, “PubChem BioAssay data set” (2004)
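Cells were grown in 96-well plates and exposed to each compound for 48 hours at five concentrations; endpoints were interpolated linearly between bracketing concentrations, or set to the highest concentration if not reached. GI50 marks 50% less growth.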 Active and inactive are the calls of the source. Cut-off read from the data, not from the text of the source: active = GI50 up to about 1.1 µM and inactive = higher.

Tests used:
Assay in all cases: NCI anticancer screen, dose series, 48 h
[1] = tested on: T47D
[2] = tested on: A498
[3] = tested on: PC-3
[4] = tested on: HT-29
[5] = tested on: SNB-19
[6] = tested on: ACHN
[7] = tested on: NCI-H226
[8] = tested on: MCF7
[9] = tested on: MOLT-4
[10] = tested on: NCI-H460
[11] = tested on: SR
[12] = tested on: OVCAR-5
[13] = tested on: HCT-116
[14] = tested on: SN12C
[15] = tested on: UACC-257
[16] = tested on: CCRF-CEM
[17] = tested on: MDA-MB-231
[18] = tested on: Malme-3M
[19] = tested on: 786-0
[20] = tested on: SK-OV-3
[21] = tested on: RXF 393
[22] = tested on: COLO 205
[23] = tested on: CAKI-1
[24] = tested on: A549
[25] = tested on: U-251
[26] = tested on: SF-268
[27] = tested on: HOP-62
[28] = tested on: HCT-15
[29] = tested on: SF-539
[30] = tested on: TK-10
[31] = tested on: SW-620
[32] = tested on: OVCAR-8
[33] = tested on: M14
[34] = tested on: EKVX
[35] = tested on: DU-145
[36] = tested on: KM12
[37] = tested on: K562
[38] = tested on: Hs-578T
[39] = tested on: HL-60
[40] = tested on: BT-549
[41] = tested on: HOP-92
[42] = tested on: RPMI-8226
[43] = tested on: OVCAR-4
[44] = tested on: LOX IMVI
[45] = tested on: SF-295
[46] = tested on: MDA-MB-435
[47] = tested on: OVCAR-3
[48] = tested on: UO-31
[49] = tested on: UACC-62
[50] = tested on: NCI-H23
[51] = tested on: SNB-75
[52] = tested on: NCI/ADR-RES
[53] = tested on: NCI-H522
[54] = tested on: IGROV-1
[55] = tested on: SK-MEL-28
[56] = tested on: SK-MEL-5
[57] = tested on: MDA-N
[58] = tested on: HCC 2998
[59] = tested on: SK-MEL-2

## Cc1cc(S(=O)(=O)[N-]/C(=N/S(=O)(=O)c2ccc(Cl)cc2)[n+]2ccc(N(C)C)cc2)c(SCC(=O)O)cc1Cl
[1]
  GI50: > 100 µM (inactive)
[2]
  GI50: 45.4 µM (inactive)
[3]
  GI50: 69.5 µM (inactive)
[4]
  GI50: 57.5 µM (inactive)
[5]
  GI50: > 100 µM (inactive)
[6]
  GI50: > 100 µM (inactive)
[7]
  GI50: 52.7 µM (inactive)
[8]
  GI50: 43.8 µM (inactive)
[9]
  GI50: 34.7 µM (inactive)
[10]
  GI50: 42.8 µM (inactive)
[11]
  GI50: 35 µM (inactive)
[12]
  GI50: 21.5 µM (inactive)
[13]
  GI50: 26.4 µM (inactive)
[14]
  GI50: > 100 µM (inactive)
[15]
  GI50: > 100 µM (inactive)
[16]
  GI50: 45.3 µM (inactive)
[17]
  GI50: 83.4 µM (inactive)
[18]
  GI50: 33.2 µM (inactive)
[19]
  GI50: > 100 µM (inactive)
[20]
  GI50: 75 µM (inactive)
[21]
  GI50: 59.4 µM (inactive)
[22]
  GI50: > 100 µM (inactive)
[23]
  GI50: > 100 µM (inactive)
[24]
  GI50: > 100 µM (inactive)
[25]
  GI50: > 100 µM (inactive)
[26]
  GI50: > 100 µM (inactive)
[27]
  GI50: 17.9 µM (inactive)
[28]
  GI50: > 100 µM
[29]
  GI50: 35.5 µM (inactive)
[30]
  GI50: 86.5 µM (inactive)
[31]
  GI50: 64.1 µM (inactive)
[32]
  GI50: > 100 µM (inactive)
[33]
  GI50: 25.2 µM (inactive)
[34]
  GI50: 46.8 µM (inactive)
[35]
  GI50: > 100 µM (inactive)
[36]
  GI50: > 100 µM (inactive)
[37]
  GI50: 37.8 µM (inactive)
[38]
  GI50: > 100 µM (inactive)
[39]
  GI50: > 100 µM (inactive)
[40]
  GI50: > 100 µM (inactive)
[41]
  GI50: 24.6 µM (inactive)
[42]
  GI50: 71.1 µM (inactive)
[43]
  GI50: 34.8 µM (inactive)
[44]
  GI50: > 100 µM (inactive)
[45]
  GI50: 30.7 µM (inactive)
[46]
  GI50: > 100 µM (inactive)
[47]
  GI50: 69.7 µM (inactive)
[48]
  GI50: > 100 µM (inactive)
[49]
  GI50: 91.4 µM (inactive)
[50]
  GI50: > 100 µM (inactive)
[51]
  GI50: 20.5 µM (inactive)

## CC(=O)OCC1OC(c2nc3ccccc3s2)=CC(OC(C)=O)C1OC(C)=O (centres undefined)
[2]
  GI50: > 100 µM (inactive)
[3]
  GI50: > 100 µM (inactive)
[4]
  GI50: > 100 µM (inactive)
[5]
  GI50: > 100 µM (inactive)
[6]
  GI50: > 100 µM (inactive)
[52]
  GI50: > 100 µM (inactive)
[53]
  GI50: > 100 µM (inactive)
[7]
  GI50: > 100 µM (inactive)
[54]
  GI50: > 100 µM (inactive)
[8]
  GI50: > 100 µM (inactive)
[9]
  GI50: > 10 µM (inactive)
[10]
  GI50: > 100 µM (inactive)
[55]
  GI50: > 100 µM (inactive)
[11]
  GI50: 41.1 µM (inactive)
[12]
  GI50: > 100 µM (inactive)
[13]
  GI50: 57.5 µM (inactive)
[14]
  GI50: > 100 µM (inactive)
[15]
  GI50: > 100 µM (inactive)
[16]
  GI50: > 100 µM (inactive)
[17]
  GI50: > 100 µM (inactive)
[18]
  GI50: > 100 µM (inactive)
[19]
  GI50: > 100 µM (inactive)
[21]
  GI50: 78.3 µM (inactive)
[22]
  GI50: > 100 µM (inactive)
[23]
  GI50: > 100 µM (inactive)
[24]
  GI50: > 100 µM (inactive)
[25]
  GI50: 89.9 µM (inactive)
[26]
  GI50: 43.6 µM (inactive)
[27]
  GI50: > 100 µM (inactive)
[29]
  GI50: > 100 µM (inactive)
[30]
  GI50: > 100 µM (inactive)
[31]
  GI50: > 100 µM (inactive)
[32]
  GI50: > 100 µM (inactive)
[34]
  GI50: > 100 µM (inactive)
[35]
  GI50: > 100 µM (inactive)
[36]
  GI50: > 100 µM (inactive)
[37]
  GI50: 50.5 µM (inactive)
[56]
  GI50: > 100 µM (inactive)
[38]
  GI50: > 100 µM (inactive)
[39]
  GI50: 22.3 µM (inactive)
[40]
  GI50: > 100 µM (inactive)
[42]
  GI50: 37.3 µM (inactive)
[43]
  GI50: > 100 µM (inactive)
[44]
  GI50: > 100 µM (inactive)
[45]
  GI50: > 100 µM (inactive)
[46]
  GI50: > 100 µM (inactive)
[47]
  GI50: > 100 µM (inactive)
[48]
  GI50: > 100 µM (inactive)
[50]
  GI50: > 100 µM (inactive)
[51]
  GI50: 22.2 µM (inactive)
[57]
  GI50: > 100 µM (inactive)

## COc1ccc2nc3cc(Cl)ccc3c(NCCCN(Cc3cc(OC)c(OC)c(OC)c3)Cc3cc(OC)c(OC)c(OC)c3)c2c1
[1]
  GI50: 23 µM (inactive)
[3]
  GI50: 10.4 µM (inactive)
[4]
  GI50: 2.31 µM (inactive)
[5]
  GI50: 17.4 µM (inactive)
[6]
  GI50: 11.7 µM (inactive)
[52]
  GI50: 23.4 µM (inactive)
[53]
  GI50: 9.48 µM (inactive)
[7]
  GI50: 14 µM (inactive)
[54]
  GI50: 15.3 µM (inactive)
[8]
  GI50: 13.6 µM (inactive)
[9]
  GI50: 1.34 µM (inactive)
[10]
  GI50: 6.84 µM (inactive)
[55]
  GI50: 16.4 µM (inactive)
[11]
  GI50: 2.31 µM (inactive)
[12]
  GI50: 13.3 µM (inactive)
[13]
  GI50: 0.174 µM (active)
[58]
  GI50: 14.3 µM (inactive)
[14]
  GI50: 16.8 µM (inactive)
[15]
  GI50: 13.9 µM (inactive)
[17]
  GI50: < 0.01 µM (active)
[18]
  GI50: 17.7 µM (inactive)
[19]
  GI50: 12.1 µM (inactive)
[20]
  GI50: 17.1 µM (inactive)
[21]
  GI50: 3.38 µM (inactive)
[22]
  GI50: 4.3 µM (inactive)
[23]
  GI50: 14.4 µM (inactive)
[24]
  GI50: 14.6 µM (inactive)
[25]
  GI50: 4.32 µM (inactive)
[26]
  GI50: 13.5 µM (inactive)
[27]
  GI50: 4.65 µM (inactive)
[28]
  GI50: > 10 µM
[29]
  GI50: 2.2 µM (inactive)
[30]
  GI50: 23.1 µM (inactive)
[31]
  GI50: 1.14 µM (inactive)
[32]
  GI50: 12.1 µM (inactive)
[33]
  GI50: 1.78 µM (inactive)
[34]
  GI50: 13.5 µM (inactive)
[35]
  GI50: 12.8 µM (inactive)
[36]
  GI50: 13.8 µM (inactive)
[37]
  GI50: 1.19 µM (inactive)
[56]
  GI50: 1.29 µM (inactive)
[38]
  GI50: 8.55 µM (inactive)
[40]
  GI50: 14.1 µM (inactive)
[41]
  GI50: 10.1 µM (inactive)
[42]
  GI50: 3.07 µM (inactive)
[45]
  GI50: 3.33 µM (inactive)
[46]
  GI50: > 10 µM (inactive)
[47]
  GI50: 19 µM (inactive)
[48]
  GI50: 10.6 µM (inactive)
[49]
  GI50: 18.4 µM (inactive)
[50]
  GI50: > 10 µM (inactive)
[59]
  GI50: 25.1 µM (inactive)
